Publication PMC8246325, “Toxicity of Jegosaponins A and B from Styrax japonica Siebold et al. Zuccarini in Prostate Cancer Cells and Zebrafish Embryos Resulting from Increased Membrane Permeability” (International Journal of Molecular Sciences, 2021)

Legend:
48 hpf zebrafish = assay: DRAQ7 membrane permeability assay in zebrafish; assay type: in vivo, zebrafish (Danio rerio); details: for Lethality to zebrafish embryos at high concentration: 60 min; for DRAQ7 signals in zebrafish (cell membrane permeability): 30 min of exposure, mainly tail regions
Protocol: (§1) PC-3 cells were seeded (4 × 10^3 cells/well) in ibidi 8-well μ-Slide (Ibidi, Munich, Germany) in DMEM supplemented with 10% FBS and cultured for 24 h. Then, DRAQ7 (DRAQ7 DROP & GO; Biostatus, Shepshed, UK) and the tested compounds were added to the cells. After an appropriate time, the cells were imaged using a BZ-X710 fluorescence microscope (Keyence, Tokyo, Japan). For zebrafish embryos, 48 hpf embryos were treated with DRAQ7 and the tested compounds and imaged using a BZ-X710 fluorescent microscope.

PC-3 cells = assay: DRAQ7 membrane permeability assay in PC-3 cells; assay type: cell-based; details: Homo sapiens; for IC50: 1 h (Table 1); for EC50: DRAQ7 membrane-impermeable dye, read-out: EC50 of DRAQ7 nucleus staining (DRAQ7 positive cells)
Protocol: as §1

DU145 = assay: Cell viability assay (CellTiter-Glo) in DU145 cells; assay type: cell-based, human; details: 1 µM, 48 h (Figure S1)
Protocol: (§2) Human prostate cancer PC-3, […], and LNCaP cells were obtained from Riken Bioresource Center (Tokyo, Japan) and cultured in Dulbecco’s modified Eagle medium-low glucose (DMEM; Sigma-Aldrich, St. Louis, MO, USA), supplemented with 10% fetal bovine serum (FBS; Biowest SAS, Nuaille, France) and 1% penicillin-streptomycin (Fujifilm Wako Pure Chemicals) at 37 °C in a humidified 5% CO2 atmosphere. For screening, the cells were seeded (3 × 10^3 cells/well) in a 96-well plate and cultured for 24 h in DMEM supplemented with 1% FBS. The tested compounds were then administered to the cells. Forty-eight hours after administration, cell viability was measured using the CellTiter-Glo luminescent cell viability assay (Promega, Madison WI, USA) according to the manufacturer’s protocol. Luminescence signals were measured using a Victor2 microplate reader (PerkinElmer, Boston, MA, USA). For the negative control (0 μM jegosaponin A and B), 0.1% dimethyl sulfoxide (vehicle) was used. Cell viability was calculated as the ratio of the negative controls. The assay was performed in triplicate.

sheep red blood cells = assay: Haemolysis assay; assay type: cell-based; details: Ovis aries, Erythrocyte; RBC, 1 h (Table 1); read-out: RBC Hemolysis HD50 (1 h)
Protocol: A haemolysis assay was performed as previously reported. Five millilitres of sheep defibrinated blood (Nippon Bio-Supp. Centre, Tokyo, Japan) was diluted in 45 mL of Dulbecco’s phosphate-buffered saline (DPBS) to obtain a total volume of 50 mL. The cell suspension was centrifuged at 500× g for 5 min, and the supernatant was discarded. This procedure was repeated three times, and DPBS was added to the precipitate, and the red blood cell (RBC) count was adjusted to ~5×10^8 cells/mL. The RBC suspension (500 µL) was placed into a 1.5 mL storage tube, and the reagent was administered and incubated for 30 min on ice. […] The cell suspension was then centrifuged at 500× g for 5 min. The haemoglobin concentration in the supernatant was measured by measuring the UV absorbance at 540 nm.

[1] = test system: PC-3 prostate cancer cells; assay: Cell viability assay (CellTiter-Glo) in PC-3 cells; assay type: cell-based, human; details: for Suppression of viability of PC-3 cells: 1 µM, 48 h (Figure S1); for CC50: Homo sapiens, PC-3 cells, 48 h treatment, read-out: PC-3 cell viability, lethal concentration 50 (LC50)
Protocol: as §2

[2] = Zebrafish embryo acute toxicity test (ZFET); set-up: species or system zebrafish (Danio rerio); details: AB, in vivo, other: embryos exposed in 6-well plates; for LC50 at 120 h: embryos exposed from 5 hpf to 120 hpf; for LC50 at 24 h: embryos exposed from 5 hpf, 24 h after administration (to 24 hpf)
Protocol: Zebrafish AB strain (Zebrafish International Resource Center, Eugene, OR, USA) was maintained in our facility according to standard operational guidelines. All animal procedures were performed by the Ethics Committee of Mie University, according to the Japanese Animal Welfare Regulation ‘Act on Welfare and Management of Animals’ (Ministry of Environment of Japan), and complied with international guidelines.
ZFETs were performed as previously reported. In brief, blastula stage embryos (approximately 5 h post fertilisation (hpf)) were transferred into 6-well plates and exposed to jegosaponin A or B at 28 °C until 120 hpf. Each group contained nine fish in three triplicates. The number of surviving embryos was counted every 24 h.

LNCaP = assay: Cell viability assay (CellTiter-Glo) in LNCaP cells; assay type: cell-based, human; details: 1 µM, 48 h (Figure S1)
Protocol: as §2

caspase-3 and caspase-7 = assay: Caspase 3/7 assay (Caspase-Glo 3/7) in PC-3 cells; assay type: cell-based, human; details: for Caspase 3/7 activities in PC-3 cells: 3 or 6 h; for Induction of caspase-3 and caspase-7 activities: PC-3 cells, sub-IC50 concentrations
Protocol: PC-3 cells were seeded (3 × 10^3 cells/well) in a 96-well plate in DMEM containing 10% FBS for 24 h and treated with the test compounds. Caspase-Glo 3/7 assay (Promega) was performed according to the manufacturer’s instructions. Luminescence signals were measured using a Victor2 microplate reader (PerkinElmer).

Compound	DRAQ7 signals in zebrafish (cell membrane permeability) (48 hpf zebrafish)	IC50 (PC-3 cells)	EC50 (PC-3 cells)	EC50 (sheep red blood cells)	Suppression of viability of PC-3 cells [1]	CC50 [1]	LC50 at 120 h [2]	LC50 at 24 h [2]	Induction of caspase-3 and caspase-7 activities (caspase-3 and caspase-7)	further results
C/C=C(\C)C(=O)O[C@H]1[C@H](O)[C@@]2(COC(C)=O)C(CC1(C)C)C1=CCC3[C@@]4(C)CC[C@H](O[C@@H]5O[C@H](C(=O)O)[C@@H](O[C@@H]6O[C@H](CO)[C@H](O)[C@H](O)[C@H]6O[C@@H]6O[C@@H](C)[C@H](O)[C@@H](O)[C@H]6O)[C@H](O)[C@H]5O[C@@H]5O[C@H](CO)[C@@H](O)[C@H](O)[C@H]5O)C(C)(C)C4CC[C@@]3(C)[C@]1(C)C[C@H]2O (stereo partly drawn) [Jegosaponin B, jegosaponin B]	apparently increased DRAQ7 signals	6 µM	6 ± 1.2 µM	20.2 µM	suppress viability	1600 nM	1300 nM	1400 nM	no apparent induction of their activities	Lethality to zebrafish embryos at high concentration (48 hpf zebrafish; 12 μM): killed all embryos; Suppression of viability of DU145 cells (DU145; listed as B): suppress viability; Suppression of viability of DU145 cells (DU145; listed as jegosaponin B): suppressed the viability; Suppression of viability of LNCaP cells (LNCaP; listed as B): suppress viability; Suppression of viability of LNCaP cells (LNCaP; listed as jegosaponin B): suppressed the viability; Caspase 3/7 activities in PC-3 cells (caspase-3 and caspase-7; 0.5 µM): do not affect caspase 3/7 activities
C/C=C(\C)C(=O)O[C@H]1[C@H](OC(C)=O)[C@@]2(CO)C(CC1(C)C)C1=CCC3[C@@]4(C)CC[C@H](O[C@@H]5O[C@H](C(=O)O)[C@@H](O[C@@H]6O[C@H](CO)[C@H](O)[C@H](O)[C@H]6O[C@@H]6O[C@@H](C)[C@H](O)[C@@H](O)[C@H]6O)[C@H](O)[C@H]5O[C@@H]5O[C@H](CO)[C@@H](O)[C@H](O)[C@H]5O)C(C)(C)C4CC[C@@]3(C)[C@]1(C)C[C@H]2O (stereo partly drawn) [Jegosaponin A, jegosaponin A]	apparently increased DRAQ7 signals	3.4 µM	3.4 ± 0.6 µM	2.1 µM	suppress viability	700 nM	500 nM	700 nM	no apparent induction of their activities	Lethality to zebrafish embryos at high concentration (48 hpf zebrafish; 6 μM): killed all embryos; Suppression of viability of DU145 cells (DU145): suppress viability; Suppression of viability of DU145 cells (DU145; listed as jegosaponin A): suppressed the viability; Suppression of viability of LNCaP cells (LNCaP): suppress viability; Suppression of viability of LNCaP cells (LNCaP; listed as jegosaponin A): suppressed the viability; Caspase 3/7 activities in PC-3 cells (caspase-3 and caspase-7; 1.5 µM): do not affect caspase 3/7 activities
